Laboratory results reported in US5968514A (priority 1994, dated 1999).
“And” between values parts separate entries of the source, which are not always exact repeats. Identical values can stand only once. “Also recorded” adds a separate entry of the source. Like-named read-outs stand apart in the source and are kept apart here. Ends that are not written are not given here.

Key:
[1] = system: class II MHC molecules on Raji cells; type: binding, human
[2] = system: class II MHC molecules on A20 cells; type: binding, mouse; conditions: for IC50: read-out: concentration reducing 125I-MMTV ORF(76-119) binding to A20 cells by 50%
[3] = system: human PMNC, APC and T cell fractions; type: cell-based
[4] = system: class II MHC molecules (I-A^d and I-E^d) on A20 cells; type: binding, mouse
[5] = target: I-Aβ^b (60-90) peptide of class II MHC β-chain (Mus musculus, UniProt P14483); type: binding, murine
Chain of I-Aβ^b (60-90) peptide of class II MHC β-chain (P14483 87-117): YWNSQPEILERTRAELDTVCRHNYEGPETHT

[6] = system: class II MHC molecules on Raji cells; type: binding, human; remark: listed apart in the source
Whole PMNC = type: cell-based, human
[7] = system: human peripheral mononuclear cells; type: cell-based
[8] = system: class II-negative L cells; type: binding

With staphylococcal enterotoxin A [SEA] the IC50 ([1]; read-out: concentration reducing 125I-SEA binding to Raji cells by 50%) was 0.2 µM, the “competition with 125I-MMTV ORF(76-119) for binding to A20 cells (in words)” value (from here on “competition … (in words)”) [2] was “a more potent competitor” and the IC50 [2] was 1.8 µM. For the same substance, the “SI ± sd, APC” value [3] was 1.6 ± 0.2, the “ratio of the stimulation index for whole PMNC versus reconstituted APC/T cells” value [3] was roughly 6.78 and the “effectiveness as competitor of 125I-SEA binding relative to MMTV ORF(76-119)” value [4] was 20 times. The “competition with 125I-SEA and 125I-MMTV ORF(76-119) for binding to I-Aβ^b (60-90) peptide” value [5] was “competed”, the “inhibition of 125I-HIV-1 Nef(123-160) binding to Raji cells (in words)” value [6] was “binding as well as SEE, but it was more effective than SEC1 or SEB” and the “IFNγ at 24 H” value (Whole PMNC) was 55 ± 7. For the same substance, the “IFNγ at 48 h” value (Whole PMNC) was 550 ± 141, the “IFNγ at 72 h” value (Whole PMNC) was 3000 and the “IFNγ at 96 h” value (Whole PMNC) was 2000. The “SI ± sd, stimulus alone” value [7] was 17.6 ± 3.3.
For concanavalin A [ConA], the “SI ± sd, APC” value [3] was 0.9 ± 0.1, the “SI ± sd, APC + T cells” value [3] was 40.7 ± 4.3 and the “IFNγ at 24 H” value (Whole PMNC) was 10. For the same substance, the “IFNγ at 48 h” value (Whole PMNC) was 350 ± 71, the “IFNγ at 72 h” value (Whole PMNC) was 400 ± 141 and the “IFNγ at 96 h” value (Whole PMNC) was 150 ± 71. The “level of IFNγ production (comparison in words)” value (Whole PMNC) was “levels much lower than that of Nef or SEA” and the “SI ± sd, stimulus alone” value [7] was 6.0 ± 0.4.
staphylococcal enterotoxin B [SEB] was tested, and the “competition … (in words)” value [2] was “competed less effectively than SEA” and the “inhibition of 125I-HIV-1 Nef(123-160) binding to Raji cells (in words)” value [6] was “it was more effective than SEC1 or SEB”.
In the case of “MMTV ORF(76-119): SEQ ID NO. 1 DSFNNSSVQDYNLNDSENSTFLLGQGPQPTSSYKPHRLCPSEIE”, the “binding of MMTV ORF(76-119) to class II-negative L cell line in comparison to A20 cells” value [8] is reported as “insignificant”, the “direct binding of 125I-labelled peptide to A20 cells” value [2] is reported as “did bind” and the IC50 [2] is reported as 25 µM. For the same substance, the “reduction of 125I-SEA binding to A20 cells” value [4] was “approximately 63%”, the IC50 ([4]; read-out: concentration reducing 125I-SEA binding to A20 cells by 50%) was 20 µM and ~20 µM and the “competition with 125I-SEA and 125I-MMTV ORF(76-119) for binding to I-Aβ^b (60-90) peptide” value [5] was “competed”.
In the case of “HIV-1 Nef(123-160): SEQ ID NO. 18 DWQNYTPGPGVRYPLTFGWCYKLVPVEPDKVEEANKGE”, the IC50 ([6]; read-out: concentration reducing 125I-HIV-1 Nef(123-160) binding to Raji cells by 50%) is reported as 30 µM, the “SI ± sd, cells cultured with Anti-IgM + peptide” value ([7]; 96 h) is reported as 14.1 ± 0.5 and the “SI ± sd, cells cultured with ConA + peptide” value ([7]; 96 h) is reported as 4.5 ± 0.4.
With Toxic shock syndrome toxin-1 [TSST-1] the “competition … (in words)” value [2] was “did not compete”.
For “NKGENTSLLHPVSLHGMDDPEREVLEWRFD [HIV-1 Nef(156-186)]”, the “SI ± sd, cells cultured with ConA + peptide” value [7] was 5.2 ± 1.6.
“HIV-1 Nef(31-65): SEQ ID NO. 15 GAASRDLEKHGAITSSNTAATNAACAWLEAQEEEE” was tested, and the “reduction of 125I-SEA binding to Raji cells” value [1] was “slight inhibitory effects; also recorded: slightly reduced”.
For “HIV-1 Nef(1-38): SEQ ID NO. 14 MGGKWSKSSVVGWPTVRERMRRAEPAADGVGAASRDLE”, the “reduction of 125I-SEA binding to Raji cells” value [1] was “slight inhibitory effects; also recorded: slightly reduced”.
